Legend:
[1] = biological target: T1, recombinant RORγ Ligand Binding Domain (LBD) protein (Homo sapiens, UniProt P51449); test: Radio-Ligand RORγ Binding Assay (Assay 1); settings: cell-free competition with 25-hydroxy[26,27-3H]-cholesterol; read-out: RORγ Binding Ki Range* (nM) (Assay 1)
T1 construct: 6×His; GST
T1 sequence (P51449 269-508 limits assumed): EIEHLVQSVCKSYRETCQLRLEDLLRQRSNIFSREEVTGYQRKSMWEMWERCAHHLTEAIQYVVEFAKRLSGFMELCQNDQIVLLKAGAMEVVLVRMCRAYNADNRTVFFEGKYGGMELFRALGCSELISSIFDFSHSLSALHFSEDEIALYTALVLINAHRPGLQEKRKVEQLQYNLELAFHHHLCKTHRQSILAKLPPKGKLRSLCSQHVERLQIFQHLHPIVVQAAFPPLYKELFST
Procedure: Radio-Ligand RORγ Binding Assay (Assay 1)
The plate was shaken at 700 rpm for 20 min and incubated for 10 min at rt, after which 40 μL of poly-Lys YSi SPA beads (PerkinElmer, Cat. # RPNQ0010) were added to achieve 50 μg of the beads per well. The plate was incubated on an orbital shaker for 20 min and then for 10 min without agitation at rt. SPA signal for tritium beta radiation was registered on PerkinElmer Microbeta plate reader.

IL-17A production = test: Human Whole Blood Assay (Assay 3); assay type: cell-based; settings: IL-17A, 50% blood/media, CytoStim, 48 h, read-out: 50% Human Whole Blood Assay IC50, nM* (Assay 3)
Procedure: Human Whole Blood Assay (Assay 3)
Compounds of the invention were tested in the human whole blood assay to measure their effects on IL-17A production as determined by cytokine secretion into 50% blood/media supernatant. Mixtures of sodium heparinized whole blood (isolated from healthy human donors) and the T cell activator CytoStim, in the presence or absence of compound, were plated in sterilized, tissue culture-treated 24-well plates. Specifically, the mixtures in each well were as follows: (1) 500 μL of whole blood, (2) 250 μL of compound diluted into RPMI-1640 media containing 10% HyClone™ FCS (Thermo Fisher Scientific, Waltham, Mass.), Gibco® Pen/Strep and Gibco® NEAA (Life Technologies, Grand Island, N.Y.), and (3) 250 μL of CytoStim (Miltenyi Biotech, Germany) diluted to a final concentration of 10 μL/mL in complete cell culture medium.
IL-17A cytokine expression was determined using 25 μL of the transferred supernatant diluted with 25 μL of Diluent 43 from the Human IL-17A V-PLEX™ kit (cat. # K151RFD-4, Meso Scale Discovery, Rockville, Md.). The assay was performed according to the manufacturer's instructions using included reagents. The IL-17A V-PLEX™ plates were read using the Meso Scale Discovery Imager (Model 1200).

[2] = biological target: T2, full-length RORγt in Jurkat cells (Homo sapiens, UniProt P51449)
T2 sequence (P51449 1-497 isoform P51449-2): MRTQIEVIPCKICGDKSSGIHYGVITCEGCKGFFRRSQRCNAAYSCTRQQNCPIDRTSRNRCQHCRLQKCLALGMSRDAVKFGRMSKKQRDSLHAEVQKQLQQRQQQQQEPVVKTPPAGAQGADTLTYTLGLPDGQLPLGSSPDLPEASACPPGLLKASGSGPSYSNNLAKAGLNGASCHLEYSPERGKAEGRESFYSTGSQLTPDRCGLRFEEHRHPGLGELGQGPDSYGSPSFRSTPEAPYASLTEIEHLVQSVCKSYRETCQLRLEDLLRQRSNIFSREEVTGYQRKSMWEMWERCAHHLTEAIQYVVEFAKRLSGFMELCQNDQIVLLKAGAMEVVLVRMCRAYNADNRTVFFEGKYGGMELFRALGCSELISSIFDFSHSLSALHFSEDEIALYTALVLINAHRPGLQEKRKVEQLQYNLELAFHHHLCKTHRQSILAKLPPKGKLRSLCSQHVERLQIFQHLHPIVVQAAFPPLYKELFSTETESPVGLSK
Procedure: ROR ? t 5×RORE Assay in Jurkat Cells (Assay 2)
Compounds of the present invention were tested for RORγ inverse agonist activity in a cell-based, transcriptional activity assay. […] Luciferase activity in the conditioned supernatants was determined with NanoGlo® assay reagents (Promega, Cat.# N1130).

Compound	Ki [1]	IC50 (IL-17A production)	IC50 [2]
CCS(=O)(=O)c1ccc(C(C)(CO)NC(=O)c2cnc3c(c2)CN(C[C@H]2CC[C@H](C(F)(F)F)CC2)[C@@H]3C(C)C)cc1 (stereo partly shown) [Compound 9]	100 to 1000 nM	–	–
CCS(=O)(=O)c1ccc([C@H](CO)NC(=O)c2cnc3c(c2)CN(CC(F)(F)F)[C@@H]3Cc2ccccc2)cc1 [Compound 19]	< 100 nM	–	100 to 1000 nM
CCS(=O)(=O)c1ccc([C@H](CO)NC(=O)c2cnc3c(c2)CN(CC(F)(F)F)[C@H]3Cc2ccccc2)cc1 [Compound 22]	< 100 nM	–	< 100 nM
CCS(=O)(=O)c1ccc([C@H](CO)NC(=O)c2cnc3c(c2)CN(C[C@H]2CC[C@H](C(F)(F)F)CC2)C3C(F)(F)F)cc1 (stereo partly shown) [Compound 23]	< 100 nM	–	< 100 nM
CCS(=O)(=O)c1ccc([C@H](CO)NC(=O)c2cnc3c(c2)CN(C[C@H]2CC[C@H](C(F)(F)F)CC2)[C@H]3C)cc1 [Compound 26]	< 100 nM	–	100 to 1000 nM
CCS(=O)(=O)c1ccc([C@H](CO)NC(=O)c2cnc3c(c2)CN(C[C@H]2CC[C@H](C(F)(F)F)CC2)[C@H]3CC2CCOCC2)cc1 [Compound 27]	< 100 nM	–	< 100 nM
CCS(=O)(=O)c1ccc([C@H](CO)NC(=O)c2cnc3c(c2)CN(C[C@H]2CC[C@H](C(F)(F)F)CC2)[C@@H]3C)cc1 [Compound 28]	> 1000 nM	–	–
CCS(=O)(=O)c1ccc([C@H](CO)NC(=O)c2cnc3c(c2)CN(C[C@H]2CC[C@H](C(F)(F)F)CC2)[C@H]3C2CCOCC2)cc1 [Compound 31]	< 100 nM	–	< 100 nM
CCS(=O)(=O)c1ccc([C@H](CO)NC(=O)c2cnc3c(c2)CN(C)[C@H]3Cc2ccccc2)cc1 [Compound 35]	100 to 1000 nM	–	–
CCS(=O)(=O)c1ccc([C@H](CO)NC(=O)c2cnc3c(c2)CN(C[C@H]2CC[C@H](C(F)(F)F)CC2)[C@H]3Cc2ccccc2)cc1 [Compound 37]	< 100 nM	–	< 100 nM
CCS(=O)(=O)c1ccc([C@H](CO)NC(=O)c2cnc3c(c2)CN(C[C@H]2CC[C@H](C(F)(F)F)CC2)[C@@H]3Cc2ccccc2)cc1 [Compound 40]	100 to 1000 nM	–	–
CC[C@H]1c2ncc(C(=O)N[C@@H](CO)c3ccc(S(=O)(=O)CC)cc3)cc2CN1C[C@H]1CC[C@H](C(F)(F)F)CC1 [Compound 41, (S)-7-ethyl-N—((R)-1-(4-(ethylsulfonyl)phenyl)-2-hydroxyethyl)-6-((trans-4-(trifluoromethyl)cyclohexyl)methyl)-6,7-dihydro-5H-pyrrolo[3,4-b]pyridine-3-carboxamide]	–	< 100 nM	–
CCO[C@H]1CC[C@H](CN2Cc3cc(C(=O)N[C@@H](CO)c4ccc(S(=O)(=O)CC)cc4)cnc3[C@@H]2C(C)C)CC1 [Compound 43]	< 100 nM	–	< 100 nM
CCS(=O)(=O)c1ccc([C@@H](CO)NC(=O)c2cnc3c(c2)CN(C[C@H]2CC[C@H](C(F)(F)F)CC2)[C@H]3C(C)C)nc1 [Compound 44]	–	> 200 nM	–
CCS(=O)(=O)c1ccc([C@H](CO)NC(=O)c2cnc3c(c2)CN(C[C@H]2CC[C@H](C(F)(F)F)CC2)[C@H]3C(C)C)nc1 [Compound 45]	–	> 200 nM	–
CCS(=O)(=O)c1ccc([C@H](CO)NC(=O)c2cnc3c(c2)CN(C[C@H]2CC[C@H](C(F)(F)F)CC2)[C@H]3C(C)C)cc1 [Compound 46, (S)—N—((R)-1-(4-(ethylsulfonyl)phenyl)-2-hydroxyethyl)-7-isopropyl-6-((trans-4-(trifluoromethyl)cyclohexyl)methyl)-6,7-dihydro-5H-pyrrolo[3,4-b]pyridine-3-carboxamide]	< 100 nM	< 100 nM	< 100 nM
CCS(=O)(=O)c1ccc([C@@H](CO)NC(=O)c2cnc3c(c2)CN(C[C@H]2CC[C@H](C(F)(F)F)CC2)[C@H]3C(C)C)cc1 [Compound 47]	< 100 nM	> 200 nM	< 100 nM

The next lines start with the values.

Ki [1]	IC50 (IL-17A production)	IC50 [2]	Compound
< 100 nM	< 100 nM	–	CCS(=O)(=O)c1ccc([C@H](CO)NC(=O)c2cnc3c(c2)CN(C[C@@H]2CC[C@@H](C(F)(F)F)OC2)[C@H]3C(C)C)nc1 (single isomer, unassigned) [Compound 1]
< 100 nM	< 100 nM	–	CCS(=O)(=O)c1ccc([C@H](CO)NC(=O)c2cnc3c(c2)CN(C[C@@H]2CC[C@@H](C(F)(F)F)OC2)[C@H]3C(C)C)cc1 (single isomer, unassigned) [Compound 2]
< 100 nM	< 100 nM	< 100 nM	CCS(=O)(=O)c1ccc([C@H](CO)NC(=O)c2cnc3c(c2)CN(C[C@H]2CC[C@H](C(F)(F)F)OC2)[C@H]3C(C)C)cc1 (single isomer, unassigned) [Compound 5]
< 100 nM	< 100 nM	–	CC[C@H]1c2ncc(C(=O)N[C@@H](CO)c3ccc(S(=O)(=O)CC)cc3)cc2CN1C[C@H]1CC[C@H](C(F)(F)F)OC1 (single isomer, unassigned) [Compound 10]
< 100 nM	–	–	CC[C@H]1c2ncc(C(=O)N[C@@H](CO)c3ccc(S(=O)(=O)CC)cc3)cc2CN1C[C@@H]1CC[C@@H](C(F)(F)F)OC1 (single isomer, unassigned) [Compound 11]
< 100 nM	< 100 nM	–	CCS(=O)(=O)c1ccc([C@H](CO)NC(=O)c2cnc3c(c2)CN(C[C@@H]2CC[C@@H](C(F)(F)F)CO2)[C@H]3C(C)C)cc1 (single isomer, unassigned) [Compound 14]
< 100 nM	–	–	CCS(=O)(=O)c1ccc([C@H](CO)NC(=O)c2cnc3c(c2)CN(C[C@H]2CC[C@H](C(F)(F)F)CO2)[C@H]3C(C)C)cc1 (single isomer, unassigned) [Compound 15]
< 100 nM	–	–	CCS(=O)(=O)c1ccc([C@H](CO)NC(=O)c2cnc3c(c2)CN(C[C@@H]2CC[C@H](C(F)(F)F)CO2)[C@H]3C(C)C)cc1 (single isomer, unassigned) [Compound 18]
< 100 nM	–	–	CCS(=O)(=O)c1ccc([C@H](CO)NC(=O)c2cnc3c(c2)CN(C[C@H]2CC[C@@H](C(F)(F)F)CO2)[C@H]3C(C)C)cc1 (single isomer, unassigned) [Compound 21]
< 100 nM	100 to 200 nM	–	CCS(=O)(=O)c1ccc([C@H](NC(=O)c2cnc3c(c2)CN(C[C@H]2CC[C@H](C(F)(F)F)CC2)[C@H]3C(C)C)[C@H](C)O)cc1 (single isomer, unassigned) [Compound 39]
< 100 nM	> 200 nM	–	CCS(=O)(=O)c1ccc([C@@H](NC(=O)c2cnc3c(c2)CN(C[C@H]2CC[C@H](C(F)(F)F)CC2)[C@H]3C(C)C)[C@@H](C)O)cc1 (single isomer, unassigned) [Compound 42]
< 100 nM	–	100 to 1000 nM	CCS(=O)(=O)c1ccc(C(C)(CO)NC(=O)c2cnc3c(c2)CN(C[C@H]2CC[C@H](C(F)(F)F)CC2)[C@H]3C(C)C)cc1 (stereo partly shown) [Compound 7]
< 100 nM	–	> 1000 nM	CC(C)[C@H]1c2ncc(C(=O)N[C@@H](CO)c3ccc(S(C)(=O)=O)cc3)cc2CN1C[C@H]1CC[C@@H](C(F)(F)F)CC1 [Compound 8]

Source: patent US9481674B1, “Dihydropyrrolopyridine inhibitors of ROR-gamma” (Vitae Pharmaceuticals, Inc., priority 2016, dated 2016)
